This note sets out measurements from ChEMBL document CHEMBL4020782, “Design, synthesis and biological evaluation of 4-piperazinyl-containing Chidamide derivatives as HDACs inhibitors” (Bioorg Med Chem Lett, 2017).

Bounds are passed on as bounds.

In data set [1] the target is T1, Histone deacetylase 1 (Homo sapiens, UniProt Q13547). In words: Inhibition of recombinant human HDAC1 using a fluorogenic substrate at 1 uM by fluorescence method.
For data set [2], the target named is T1, Histone deacetylase 1. As to the kind of experiment: Inhibition of recombinant human HDAC1 using a fluorogenic substrate at 10 uM by fluorescence method.
Data set [3] in a line: AUC in Sprague-Dawley rat at 10 mg/kg, po administered as single dose by HPLC-MS method. The class given is ADME, organism-based. Particulars: in vivo.
Data set [4] can be described thus: Tmax in Sprague-Dawley rat at 10 mg/kg, po administered as single dose by HPLC-MS method. The class given is ADME, organism-based. Particulars: in vivo.
The nature of data set [5]: Terminal half life in Sprague-Dawley rat at 2 mg/kg, iv administered as single dose by HPLC-MS method. Conditions: in vivo, read-out: beta t1/2 (converted). In kind it is ADME, organism-based.
Data set [6] in a line: Volume of distribution at steady state in Sprague-Dawley rat at 2 mg/kg, iv administered as single dose by HPLC-MS method. In kind it is ADME, organism-based. Conditions: in vivo, read-out: Vdss.
For data set [7], the system named is A549. In words: Antiproliferative activity against human A549 cells after 48 to 72 hrs by MTT assay. The class given is functional, cell-based. Background: Formazan colour is commonly taken as a measure of viable cells.
Data set [8] has as its target Voltage-gated inwardly rectifying potassium channel KCNH2 (Homo sapiens, UniProt Q12809). In words: Inhibition of recombinant human ERG expressed in HEK293 cells after 9 mins by patch clamp method. (In general: The patch-clamp technique gives a direct electrical read-out from membranes.)
Data set [9] deals with K562. As to the kind of experiment: Antiproliferative activity against human K562 cells after 48 to 72 hrs by MTT assay. In kind it is functional, cell-based.
The subject of data set [10] is HCT-116. In words: Antitumor activity against human HCT116 cells xenografted in mouse assessed as tumor growth inhibition at 25 mg/kg, po daily for 21 days. The class given is functional. Conditions: HCT-116, po, 504 h, read-out: TGI.
The target of data set [11] is T1, Histone deacetylase 1. As to the kind of experiment: Inhibition of recombinant human HDAC1 using a fluorogenic substrate by fluorescence method.
In data set [12] the test system is HCT-116. As to the kind of experiment: Antiproliferative activity against human HCT116 cells after 48 to 72 hrs by MTT assay. The class given is functional, cell-based.
Data set [13] deals with Mus musculus. In words: Toxicity in mouse xenografted with HCT116 cells assessed as weight loss at 100 mg/kg, po daily measured for 12 days. In kind it is organism-based. Conditions: in vivo, 288 h.
In data set [14] the test system is Mus musculus. In words: Toxicity in mouse xenografted with HCT116 cells assessed as weight loss at 50 mg/kg, po daily for 21 days. In kind it is organism-based. Conditions: in vivo, 504 h.
Data set [15] in a line: Clearance in Sprague-Dawley rat at 2 mg/kg, iv administered as single dose by HPLC-MS method. Conditions: in vivo. In kind it is ADME, organism-based.
Data set [16] relates to HCT-116. As to the kind of experiment: Antitumor activity against human HCT116 cells xenografted in mouse assessed as tumor growth inhibition at 50 mg/kg, po daily for 21 days. In kind it is functional. Conditions: HCT-116, po, 504 h, read-out: TGI.
For data set [17], the system named is PC-3. In words: Antiproliferative activity against human PC3 cells after 48 to 72 hrs by MTT assay. In kind it is functional, cell-based.
The subject of data set [18] is MRC5. In words: Antiproliferative activity against human MRC5 cells after 48 to 72 hrs by MTT assay. In kind it is cell-based.
A short description of data set [19]: Cmax in Sprague-Dawley rat at 10 mg/kg, po administered as single dose by HPLC-MS method. In kind it is ADME, organism-based. Also noted: dose 10 mg/kg, route oral. Particulars: in vivo.
Data set [20] is described as follows: Oral bioavailability in Sprague-Dawley rat at 10 mg/kg administered as single dose by HPLC-MS method. The class given is ADME, organism-based. Particulars: in vivo.
The test system of data set [21] is HCT-116. In words: Antitumor activity against human HCT116 cells xenografted in mouse assessed as tumor growth inhibition at 100 mg/kg, po daily for 21 days. In kind it is functional. Conditions: HCT-116, po, 504 h, read-out: TGI.
The subject of data set [22] is Mus musculus. As to the kind of experiment: Toxicity in mouse xenografted with HCT116 cells assessed as weight loss at 25 mg/kg, po daily for 21 days. Particulars: in vivo, 504 h. In kind it is organism-based.
Data set [23] deals with HCT-116. As to the kind of experiment: Antitumor activity against human HCT116 cells xenografted in po dosed mouse assessed as tumor growth inhibition administered daily for 21 days. The class given is functional, organism-based. In general terms: Xenograft models place foreign cells or tissue in a host animal.
For data set [24], the target named is T1, Histone deacetylase 1. As to the kind of experiment: Inhibition of recombinant human HDAC1 expressed in Baculovirus insect cell expression system using [3H]-metabolically labeled acetylated histone substrate after 30 mins by scintillation counting.
The test system of data set [25] is PC-3. As to the kind of experiment: Antitumor activity against human PC3 cells xenografted in nude mouse assessed as tumor growth inhibition at 100 mg/kg, ig administered 7 days per week for 3 weeks. Particulars: PC-3, po, read-out: TGI. In kind it is functional.

T1 sequence (Q13547 whole entry): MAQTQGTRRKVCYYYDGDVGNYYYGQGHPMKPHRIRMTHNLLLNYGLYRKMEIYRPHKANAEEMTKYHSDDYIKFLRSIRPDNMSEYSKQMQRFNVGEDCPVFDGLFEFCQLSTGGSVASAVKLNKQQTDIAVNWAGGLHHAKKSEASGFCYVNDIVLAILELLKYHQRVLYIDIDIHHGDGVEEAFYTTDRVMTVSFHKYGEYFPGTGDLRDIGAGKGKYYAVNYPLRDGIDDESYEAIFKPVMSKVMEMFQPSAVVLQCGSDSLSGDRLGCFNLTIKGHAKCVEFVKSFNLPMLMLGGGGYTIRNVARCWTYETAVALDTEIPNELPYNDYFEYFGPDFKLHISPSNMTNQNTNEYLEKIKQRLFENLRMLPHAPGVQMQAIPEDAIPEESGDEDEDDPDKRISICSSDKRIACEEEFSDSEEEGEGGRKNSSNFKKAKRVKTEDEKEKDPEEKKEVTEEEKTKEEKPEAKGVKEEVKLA
Voltage-gated inwardly rectifying potassium channel KCNH2, sequence (Q12809 whole entry): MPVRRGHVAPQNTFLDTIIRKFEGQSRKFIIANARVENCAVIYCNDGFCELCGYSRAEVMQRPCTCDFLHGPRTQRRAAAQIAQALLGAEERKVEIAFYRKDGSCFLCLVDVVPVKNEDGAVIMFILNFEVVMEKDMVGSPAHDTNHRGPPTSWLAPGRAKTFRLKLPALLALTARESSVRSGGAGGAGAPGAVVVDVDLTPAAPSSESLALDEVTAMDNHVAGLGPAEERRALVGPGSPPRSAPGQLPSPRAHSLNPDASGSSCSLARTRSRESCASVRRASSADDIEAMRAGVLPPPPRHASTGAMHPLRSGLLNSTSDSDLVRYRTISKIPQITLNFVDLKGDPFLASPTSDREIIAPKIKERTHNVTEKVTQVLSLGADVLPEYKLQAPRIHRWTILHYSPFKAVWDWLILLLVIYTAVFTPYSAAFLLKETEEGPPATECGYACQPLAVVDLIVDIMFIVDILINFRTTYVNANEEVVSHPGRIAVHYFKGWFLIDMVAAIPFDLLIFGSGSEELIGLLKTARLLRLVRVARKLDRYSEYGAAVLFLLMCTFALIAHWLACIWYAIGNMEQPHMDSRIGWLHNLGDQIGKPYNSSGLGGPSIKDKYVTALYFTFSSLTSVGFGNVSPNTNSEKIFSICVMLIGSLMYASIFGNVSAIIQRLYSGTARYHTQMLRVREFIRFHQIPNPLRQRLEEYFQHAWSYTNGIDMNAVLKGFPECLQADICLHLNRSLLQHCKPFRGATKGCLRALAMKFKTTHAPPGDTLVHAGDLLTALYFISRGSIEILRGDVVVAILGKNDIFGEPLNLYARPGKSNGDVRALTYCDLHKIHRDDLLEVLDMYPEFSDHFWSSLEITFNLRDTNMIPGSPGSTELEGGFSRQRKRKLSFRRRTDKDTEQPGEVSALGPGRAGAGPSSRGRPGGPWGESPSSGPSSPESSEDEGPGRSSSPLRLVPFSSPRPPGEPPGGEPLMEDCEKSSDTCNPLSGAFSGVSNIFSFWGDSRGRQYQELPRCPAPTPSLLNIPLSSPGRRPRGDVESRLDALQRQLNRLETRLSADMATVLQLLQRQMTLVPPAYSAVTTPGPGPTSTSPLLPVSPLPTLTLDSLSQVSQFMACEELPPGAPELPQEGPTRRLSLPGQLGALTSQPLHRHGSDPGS

As for `Nc1cc(F)ccc1NC(=O)c1ccc(N2CCN(C(=O)/C=C/c3ccc(F)cc3)CC2)cc1`, the inhibition (usually how much of the control response was suppressed) in [1] is 36%; in [2], 58.8%.

For the compound `COc1cc(/C=C/C(=O)N2CCN(c3ccc(C(=O)Nc4ccccc4N)cc3)CC2)cc(OC)c1OC`, the inhibition in [1] came to 21.8%; in data set [2], 60.5%.

In the case of `Nc1cc(F)ccc1NC(=O)c1ccc(N2CCN(C(=O)/C=C/c3ccc4c(c3)OCO4)CC2)cc1`, the figures for the inhibition in [1] and in [2] were 18% and 53.4%, respectively.

Turning to `Cc1ccc(/C=C/C(=O)N2CCN(c3ccc(C(=O)Nc4ccccc4N)cc3)CC2)cc1`, in data set [3], the AUC (in general, the area under the concentration-time curve, a measure of exposure) stood at 8910 ng·h/mL. Moreover, the Tmax (usually the time from dosing to the highest level) in [4] stood at 25.8 min. Also, the half-life in [5] is 64.2 min. In data set [6], the Vd is 0.11 L/kg. The half-inhibitory concentration (IC50) (as a rule, the concentration at which inhibition is half-maximal) in data set [7] was 0.135 µM; in data set [8] it was 27.1 µM; in data set [9] it was 4.86 µM; in [11], 0.798 µM; in data set [12], 0.069 µM; in [17], 3.96 µM. In addition, the IC50 in data set [18] was above 30 µM. Besides, the inhibition in vivo at 25 mg/kg in data set [10] turned out to be 42.4%. The results for the inhibition in data set [1] and in [2] were 56.3% and 94.2%, respectively. Also, the Activity in data set [13] was 19.2%; in data set [14], 11.3%; in data set [22], below 5%. Also, the clearance – broadly, the volume of plasma or blood freed of the substance per unit of time – in [15] is 7.5 mL/min/kg. Moreover, in data set [16], the inhibition in vivo at 50 mg/kg turned out to be 55.1%. For the same compound, the highest level in data set [19] (Cmax) was 2510 ng/mL. The bioavailability (in general, the share of a dose that reaches the circulation, judged against a reference dose that is usually intravenous) in data set [20] turned out to be 36.3%. Further, the inhibition in vivo at 100 mg/kg in data set [21] came out at 76.3%. The TGI result in data set [23] was “Dose-dependent effect”.

Regarding `Cc1ccc(/C=C/C(=O)N2CCN(c3ccc(C(=O)Nc4ccc(F)cc4N)cc3)CC2)cc1`, the inhibition in data set [1] is 17.4%; in data set [2], 64.3%.

In the case of `Nc1ccccc1NC(=O)c1ccc(N2CCN(C(=O)/C=C/c3cccnc3)CC2)cc1`, the figures for the inhibition in data set [1] and in data set [2] were 18.1% and 53.8%, respectively.

With `COc1ccc(/C=C/C(=O)N2CCN(c3ccc(C(=O)Nc4ccccc4N)cc3)CC2)cc1OC`, the figures for the inhibition in data set [1] and in data set [2] were 46.5% and 79.2%, respectively.

For `Nc1ccc(F)cc1NC(=O)c1ccc(CNC(=O)/C=C/c2cccnc2)cc1`, the IC50 was 0.665 µM in [7]; 0.975 µM in [9]; 0.202 µM in data set [12]; 2.09 µM in data set [17]; above 30 µM in data set [18]. Further, the inhibition was found to be 55.1% in data set [1] and 81.3% in data set [2].

For `COc1ccc(/C=C/C(=O)N2CCN(c3ccc(C(=O)Nc4ccccc4N)cc3)CC2)cc1`, the half-inhibitory concentration (IC50) turned out to be 0.53 µM in data set [7]; 25.1 µM in data set [8]; 2.96 µM in data set [9]; 0.903 µM in data set [11]; 0.765 µM in data set [12]; 8.71 µM in data set [17]. Besides, in [18], the half-maximal inhibitory concentration (IC50) is above 30 µM. Moreover, the values for the inhibition in data set [1] and in data set [2] were 50.2% and 87.8%, respectively.

As for `COc1ccc(/C=C/C(=O)NCc2ccc(C(=O)Nc3ccncc3N)cc2)cc1`, in data set [24], the IC50 stood at 3.3 µM. Moreover, in data set [25], the inhibition in vivo at 100 mg/kg came out at 39%.

Take `Nc1ccccc1NC(=O)c1ccc(N2CCN(C(=O)/C=C/c3ccccc3)CC2)cc1`: the inhibition came out at 34.3% in data set [1] and 66.8% in data set [2].

In the case of `Nc1ccccc1NC(=O)c1ccc(N2CCN(C(=O)/C=C/c3ccc4c(c3)OCO4)CC2)cc1`, the inhibition in data set [1] stood at 49.6%; in data set [2] it was 75.5%.

Consider `Nc1cc(F)ccc1NC(=O)c1ccc(N2CCN(C(=O)/C=C/c3cccnc3)CC2)cc1`, for which the inhibition was found to be 4.71% in data set [1] and 19.2% in data set [2].

For the compound `Nc1ccccc1NC(=O)c1ccc(N2CCN(C(=O)/C=C/c3ccc(F)cc3)CC2)cc1`, the IC50 is 0.811 µM in [7]; 1.1 µM in data set [9]; 0.983 µM in data set [11]; 1.98 µM in data set [12]; 2.14 µM in [17]; above 30 µM in data set [18]. Further, the inhibition worked out at 52% in data set [1] and 79% in data set [2].

With `COc1cccc(/C=C/C(=O)N2CCN(c3ccc(C(=O)Nc4ccccc4N)cc3)CC2)c1`, the results for the inhibition in [1] and in data set [2] were 45.3% and 66.9%, respectively.
